Data on ten compounds can be found in patent publication US5691368A, “Substituted oxazolidine calpain and/or cathepsin B inhibitors” (Hoechst Marion Roussel, Inc., priority 1995, dated 1997).

Values joined by “and” are separate entries in the source; they are usually repeats but may differ in a detail not shown here. Equal values may be shown once. Read-outs that look alike come from different tables or passages of the source. Where a SMILES comes first, the peptide text is derived from it. The star is where a group is joined. Cbz = O=C(OCc1ccccc1)*

Assay [1] has as its target calpain. As to conditions: broken membrane preparations; cited from earlier work.
Assay [2] has as its system rats. The conditions noted are these: cited from earlier work.
Assay [3] relates to calpain. The conditions noted are these: cited from earlier work.
Assay [4] relates to proteolytic response to post-decapitation ischemia. The conditions noted are these: cited from earlier work.
Assay [5] has as its target Muscle and erythrocyte calpain. Put plainly: In Vitro Assay of Calpain (fluorometric, t-Boc-Val-Leu-Lys-7-amido-4-methyl-coumarin substrate). The class given is biochemical. As to conditions: In Vitro Calpain Inhibition. Here is the method:
In Vitro Assay of Calpain in the Prescence of Calpain Inhibitors
Muscle and erythrocyte calpain were assayed by a fluorometric procedure using t-Boc-Val-Leu-Lys-7-amido-4-methyl-coumarin as the substrate, Sasaki et al., J. Biol. Chem. 259, 12489-12494 (1984). The enzyme calpain is commercially available and may be purchased from Sigma. The assay buffer, pH, assay techniques and calculation of the inhibitory constant (Ki) are similar to those described by Mehdi et al., Biochem. Biophys. Res. Commun. 157, 1117-1123 (1988).

The subject of assay [6] is male spontaneously hypertensive rats. The assay is described as follows: Neuroprotection in vivo, focal cerebral ischemia by permanent tandem occlusion of right middle cerebral artery and right common carotid artery. Details: species or system rat (spontaneously hypertensive). Here is the method:
Neuroprotection In Vivo With MDL 104,903 In a Model of Focal Cerebral Ischemia
For example, twelve male spontaneously hypertensive rats were divided into two groups: a vehicle-treated group and a calpain inhibitor-treated groups (MDL 104,903; 4×30 mg/kg cumulative doses). Ischemia was induced by permanent tandem occlusion of the right middle cerebral artery and right common carotid artery. Animals were killed 24 hours after surgery, and quantitative measurements of infarction volumes were performed using standard histological techniques and quantitative image analysis.

Setting [7] is: individual animal, inhibitor-treated group, 4×30 mg/kg I.V., 24 hours after surgery, 30 mg/kg.

As for `CC(C)[C@H](NC(=O)OCc1ccccc1)C(=O)N[C@H](C=O)Cc1ccccc1` [Cbz-Val-Phe-H] (Cbz-Val-Phe-aldehyde), the Ki for calpain entry in assay [1] and in assay [3] (intact cell systems) was “low” throughout. Moreover, the “reduction of infarction, edema, and calcium-activated proteolysis” value in assay [2] (intravenous injections, cumulative doses of 30 mg/kg or 60 mg/kg) is “effective in reducing infarction, edema, and calcium-activated proteolysis”. The “volumes of cerebral infarction” value in assay [2] (rats, versus saline-treated or vehicle-treated control animals) is reported as “significantly smaller”. In assay [3] (inhibitor of calpain), the cell penetration entry is reported as “cell-penetrating”. Moreover, the “proteolytic response to post-decapitation ischemia” value in assay [4] is reported as “reduced”.

The Ki is a dissociation constant, usually derived from enzyme kinetics or from competition with a known ligand. The compound `CCCC(=O)O[C@@H]1OCN(C(=O)[C@@H](NC(=O)OCc2ccccc2)C(C)C)[C@H]1Cc1ccccc1` [MDL 103,821, [4S-[3(R*),4α,5β]]-[1-[[5-butyryloxy)-4-(phenylmethyl)-3-oxazolidinyl]carbonyl]-2-methylpropyl]-carbamic acid, phenylmethyl ester] displayed a Ki in assay [5] of 1300 nM.

In turn, `CCCCC(CC)C(=O)O[C@@H]1OCN(C(=O)[C@@H](NC(=O)OCc2ccccc2)C(C)C)[C@H]1Cc1ccccc1` (stereo partly drawn) [MDL 104,092, [4S-[3(R*),4α,5β]]-[1-[[5-(2-ethylhexanoyl-oxy)-4-(phenylmethyl)-3-oxazolidinyl]carbonyl]-2-methylpropyl]-carbamic acid, phenylmethyl ester] yielded a Ki in assay [5] of 300 nM.

Compound `CC(=O)O[C@@H]1OCN(C(=O)[C@@H](NC(=O)OCc2ccccc2)C(C)C)[C@H]1Cc1ccccc1` [MDL 104,860, [4S-[3(R*),4α,5β]]-[1-[[5-(acetyloxy)-4-(phenylmethyl)-3-oxazolidinyl]carbonyl]-2-methylpropyl]carbamic acid, phenylmethyl ester] came in with a Ki in assay [5] of 1450 nM. Against the preceding compound, the Ki is about 4.8-fold higher.

For the compound `CC(C)[C@H](NC(=O)OCc1ccccc1)C(=O)N1CO[C@@H](O)[C@@H]1Cc1ccccc1` [MDL 104,903, [4S-[3(R*),4α,5β]]-[1-[[5-hydroxy-4-(phenylmethyl)-3-oxazolidinyl]carbonyl]-2-methylpropyl]-carbamic acid, phenylmethyl ester], the Ki in assay [5] came out at 33 nM. The “reduction in infarct volume” value in assay [6] (4×30 mg/kg I.V. doses via femoral vein at 2 hour intervals beginning 5 min. after initiation of ischemia, 24 hours after surgery) is 20.5%. Also, the “% of Reduction (Percentage of Infarct Reduction)” value in assay [6] (comparison of mean values with vehicle group, 4×30 mg/kg I.V.) is 20.24%. The “Brain Volume” value in assay [6] (individual animal, inhibitor-treated group, 4×30 mg/kg I.V. at 2 hour intervals from 5 min after ischemia, 24 hours after surgery, 30 mg/kg) is 1307.52 mm^3 and 1309.36 mm^3 and 1257.24 mm^3 and 1313.62 mm^3 and 1333.44 mm^3 and 1326.46 mm^3. Also, in assay [6] (setting [7]), the “Infarct Vol. v. Brain Vol.” value was 12.61% and 14.14% and 13.59% and 10.07% and 10.93%; the “Infarct Volume” value was 164.94 mm^3 and 185.16 mm^3 and 170.84 mm^3 and 178.58 mm^3 and 134.28 mm^3 and 144.92 mm^3. Also, the “Infarct Vol. v. Brain Vol., mean” value in assay [6] (mean of inhibitor-treated group (animals 7-12), 4×30 mg/kg I.V., vehicle mean 15.66) turned out to be 12.49%. Moreover, the “Infarct Volume, mean” value in assay [6] (mean of inhibitor-treated group (animals 7-12), 4×30 mg/kg I.V., vehicle mean 205.14) is recorded as 163.12 mm^3. Further, in assay [6] (mean of inhibitor-treated group (animals 7-12), 4×30 mg/kg I.V., vehicle mean 1310.15), the “Brain Volume, mean” value came to 1307.94 mm^3.

In turn, `COc1ccc(CC(=O)O[C@@H]2OCN(C(=O)[C@@H](NC(=O)OCc3ccccc3)C(C)C)[C@H]2Cc2ccccc2)cc1` [MDL 105,236, [4S-[3(R*),4α,5β]]-[1-[[5-(4-methoxyphenyl-acetyloxy)--4-(phenylmethyl)-3-oxazolidinyl]carbonyl]-2-methylpropyl-1]-carbamic acid, phenylmethyl ester] came in with a Ki in assay [5] of 1100 nM.

In turn, `CC(C)[C@@H](C(=O)N1CO[C@@H](O)[C@@H]1Cc1ccccc1)N(C)C(=O)OCc1ccccc1` [MDL 105,423, [4S-[3(R*),4α,5β]]-[1-[[5-hydroxy-4-(phenylmethyl-3-oxazolidinyl]carbonyl]-2-methylpropyl]methyl-carbamic acid, phenylmethyl ester] registered a Ki in assay [5] of 2100 nM.

For `CCOC(=O)CCC(=O)O[C@@H]1OCN(C(=O)[C@@H](NC(=O)OCc2ccccc2)C(C)C)[C@H]1Cc1ccccc1` [MDL 105,608, [4S-[3(R*),4α,5β]]-[1-[[5-(ethylsuccinyloxy)-4-(phenylmethyl)-3-oxazolidinyl]carbonyl]-2-methylpropyl]-carbamic acid, phenylmethyl ester], in assay [5], the Ki turned out to be 700 nM.

Regarding `CC(C)[C@H](NC(=O)OCc1ccccc1)C(=O)N1CO[C@@H](OC(=O)N2CCOCC2)[C@@H]1Cc1ccccc1` [MDL 105,803, [4S-[3(R*),4α,5β]]-3-[3-methyl-1-oxo-2-[[(phenylmethoxy)carbonyl]amino]butyl]-4-(phenylmethyl)-5-oxazolidinyl ester, 4-morpholinecarboxylic acid], affinity in assay [5] was put at a Ki of 2000 nM.

In the case of “[4S-[3(R*),4α,5β]]-[1-[[5-(propionyloxy)-4-(phenylmethyl)-3-oxazolidinyl]carbonyl]-2-methylpropyl]-carbamic acid, phenylmethyl ester [MDL 105,387]”, the affinity in assay [5] corresponds to a Ki of 1200 nM. Compared with the last compound, the Ki is about 1.7-fold lower.
